# Columns and labels:
# Termitomyces clypeatus [1] = test: Cellobiase activity of culture filtrate of Termitomyces clypeatus grown with glycosylation inhibitors (p-nitro phenyl β-D-glucoside substrate); assay type: cell-based; settings: for Maximum cellobiase activity: Termitomyces clypeatus in presence of 2-deoxyglucose
# Description: (§1) The fungus is maintained in agar slants containing (w/w) glucose 5%, potato extract 10%, malt extract 5%, KH2PO4 0.087%, MgSO4, 7H2O 0.05%. Cultivation of the fungus is carried out between temperatures 20-37° C., preferably at 28-30° C. and at pH between 3-8, preferably at 4-6, under aerobic condition in shake flask in liquid medium on a rotary shaker (200-300 strokes per minute). Among the assimilable carbon sources (cellobiose, mannose, fructose, xylose, arabinose, starch, dextrin, cellulose, cotton, xylan and agrowastes like baggasse powder, rice-straw powder, wheat bran, corn cob powder, corn powder; in presence of TCA cycle acids like succinate, fumarate, maleate or amino acids like aspartate, glutamate, serine, histidine and alanine or glucose analogues like D-glucosamine) D-cellobiose with succinate served as one of the best carbon sources in the concentration range of 0.5-2%(w/v). Among the assimilable nitrogen sources (ammonium chloride, ammonium nitrate, ammonium di hydrogen phosphate, potassium nitrate and organic nitrogen sources such as malt extract, yeast extract, potato extract, soya-peptone and bactopeptone) ammonium di hydrogen phosphate was used. Among the glycosylation inhibitors (Tunicamycin, deoxynojirimycin, 2-deoxy-D-glucose and D-glucono-lactone) 2-deoxy glucose was preferred (Table 1). Detergents used were Tween 20, Tween-80, or Tween-100. Initial pH of the medium may be maintained at 3-7, preferably at 4.5. Inoculum is prepared in the medium in polypropylene conical flask with sterile glass balls (1-1.5 cm in diameter) 3-4 numbers in 250-ml flask. The fine mycelia grown in liquid medium after 2-4 days of growth were added to the fermentation medium at the ratio of 1:10 (v/v). Optimum production of enzyme took place after 3 days of inoculation, between 4-6th days. The culture filtrate is freed from mycelia by any known method of filtration. Cellobiase activity of the culture medium was assayed using p-nitro phenyl β-D-glucoside as substrate. Reference may be made to Khowala. S. And Sengupta. S. (1992) Enzyme and microbial Technology, volume 14, pages144-149. One unit of activity was taken as the amount of enzyme, which could liberate one micromole of p-nitro phenol from p-nitro phenyl β-D-glucoside in the reaction mixture incubated at 50° C. for 30 minutes (Table 1 and 2). Endo-glucanase and cellobiohydrolase activities were measured by dinitrosalicylic acid reagent using carboxy methylcellulose (Sigma chemical co.) and crystalline cellulose (Sigma chemical co.) respectively as substrate (Table 2). Reference may be made to Sumner J. B. and Sumner G. (1949) in Laboratory Experiments in Chemistry, Academic press, New York, page 38. One unit of enzyme was considered as the amount of enzyme that could liberate one micromole of glucose equivalent per minute in buffer at pH 5.0 at 50° C.
# […] The 250 ml conical flask containing 50 ml of medium were autoclaved for 20 minutes at 15 pounds per square inch pressure, where separately autoclaved ammonium di hydrogen orthophosphate at the concentration of 2.4% w/w was added to the medium after sterilization. The medium was cooled and was inoculated at the rate of 10% mycelia (blended) of the fungus developed earlier in flasks with glass marbles. The culture was grown in the medium for 4 days at temperatures 28°-32° C. on a rotary-shaker. The culture filtrate was freed from mycelia and the clear supernatant was used as a source of enzymes. Cellobiase activity was 90 units per ml, endo-glucanase was 4.5 units per ml, and cellobiohydrolase was 3.5 units per ml, respectively. Cellobiase activity in absence of 2-deoxy-D-glucose in the control medium was 1.44 units per ml.
# The fungus Termitomyces clypeatus IICB-411 was grown in a medium containing (w/w, %): Cellobiose 1, 2-deoxy-D-glucose 0.5, mannose 0.5, sodium succinate 0.5, KH2PO4 0.087, MgSO4, 7H2O 0.05 at pH 4.5. […]
# Trichoderma reesei = settings: cited from earlier work
# Termitomyces clypeatus [2] = test: Cellobiohydrolase activity of culture filtrate (crystalline cellulose, dinitrosalicylic acid reagent); assay type: cell-based; settings: for cellobiohydrolase: 4 days, pH 4.5
# Description: as §1
# (§2) The fungus Termitomyces clypeatus IICB-411 was grown in a medium containing (w/w, %): Cellobiose 1, 2-deoxy-D-glucose 0.30, sodium succinate 0.5, KH2PO4 0.087, MgSO4, 7H2O 0.05 at pH 4.5. The 250 ml conical flask containing 50 ml of medium were autoclaved for 20 minutes at 15 pounds per square inch pressure, where separately autoclaved ammonium di hydrogen orthophosphate at the concentration of 2.4% w/w was added to the medium after sterilization. The medium was cooled and was inoculated at the rate of 10% mycelia (blended) of the fungus developed earlier in flasks with glass marbles. The culture was grown in the medium for 4 days at temperatures 28°-32° C. on a rotary-shaker. The culture filtrate was freed from mycelia and the clear supernatant was used as a source of enzymes. Cellobiase activity was 90 units per ml, endo-glucanase was 4.5 units per ml, and cellobiohydrolase was 3.5 units per ml, respectively. Cellobiase activity in absence of 2-deoxy-D-glucose in the control medium was 1.44 units per ml. […]
# Dichomitus squalenes = test: Cellobiase activity of Dichomitus squalenes in a similar medium; assay type: cell-based; settings: Dichomitus squalenes in presence of 2-deoxyglucose
# T. clypeatus = test: Growth of the fungus T. clypeatus in presence of 2-deoxy-D-glucose; assay type: cell-based, Termitomyces clypeatus; settings: at higher concentrations (above 0.05 to 5% w/v)
# From the text: The inventive step is the addition of 2-deoxy-D-glucose in the growth medium in presence of assimilable carbon and nitrogen sources and other nutrients. 2-deoxy-D-glucose is non-fermentable analogue of glucose and mannose, and is known to interfere in formation of wall polysaccharides in yeast [Reference may be made to European Journal of Biochemistry (1975), Volume 54, pages 459-467] and to increase protein secretion in Trichoderma reesei [Reference may be made to Journal of General Microbiology (1989) Volume 135, pages 301-307]; but it acts as a glycosylation inhibitor, increases synthesis and secretion of extracellular proteins in Termitomyces clypeatus, when used in the concentration range of 0.05 to 5%(w/v) and high cellobiase activity is produced in presence of cellobiose, as determined in the applicants laboratory.
# Termitomyces clypeatus [3] = test: Endo-glucanase activity of culture filtrate (carboxy methylcellulose, dinitrosalicylic acid reagent); assay type: cell-based; settings: for endo-glucanase: 4 days, pH 4.5
# Description: as §1, §2
# [4] = Control medium + 2-deoxy-D-glucose 300 μg/ml (Example 2), Table 2
# [5] = Control medium + 2-deoxy-D-glucose 1 mg/ml + Mannose 500 μg/ml
# [6] = Control medium + 2-deoxyglucose 1 mg/ml (Example 1), Table 2
# [7] = Example 1: 2-deoxy-D-glucose 0.30 % w/w
# [8] = Example 2: 2-deoxy-D-glucose 0.5 % + mannose 0.5 % w/w
# [9] = Example 3: 2-deoxy-D-glucose 1 % w/w
compound,measurement,setting,value
OC[C@H]1NC[C@H](O)[C@@H](O)[C@@H]1O [1-deoxynojirimycin],Cellobiase activity,Termitomyces clypeatus [1]; Control + 1-deoxynojirimycin 80 μM,1.4085 units/ml
"O=C1O[C@H](CO)[C@@H](O)[C@H](O)[C@H]1O [glucono-lactone, D-glucono-lactone]",Cellobiase activity,Termitomyces clypeatus [1]; Control + glucono-lactone 2 mg/ml,6.1820 units/ml
O=CC[C@@H](O)[C@H](O)[C@H](O)CO [2-deoxy-D-glucose],Cellobiase activity,Termitomyces clypeatus [1]; Control + 2-deoxy-D-glucose 0.05 mg/ml,2.236 units/ml
same,Cellobiase activity,Termitomyces clypeatus [1]; Control + 2-deoxy-D-glucose 1 mg/ml,50.097 units/ml
same,Cellobiase activity,Termitomyces clypeatus [1]; Control + 2-deoxy-D-glucose 5 mg/ml,0.081 units/ml
same,Cellobiase activity,Termitomyces clypeatus [1]; [4],90.020 units/ml
same,Cellobiase activity,Termitomyces clypeatus [1]; [5],140.60 units/ml
same,Cellobiase activity,Termitomyces clypeatus [1]; [6],50.097 units/ml
same,Cellobiase activity,"Termitomyces clypeatus [1]; Example 1: 2-deoxy-D-glucose 0.30 % w/w, 4 days, pH 4.5",90 units per ml
same,Cellobiase activity,"Termitomyces clypeatus [1]; Example 2: 2-deoxy-D-glucose 0.5 % + mannose 0.5 % w/w, 4 days, pH 4.5",140 units per ml
same,Cellobiase activity,"Termitomyces clypeatus [1]; Example 3: 2-deoxy-D-glucose 1 % w/w, 4 days, pH 4.5",50 units per ml
same,Maximum cellobiase activity,Termitomyces clypeatus [1]; Example-1,90.0 U/ml
same,Maximum cellobiase activity,Termitomyces clypeatus [1]; Example-2,140.0 U/ml
same,Maximum cellobiase activity,Termitomyces clypeatus [1]; Example-3,50.0 U/ml
same,enhanced production and secretion of enzyme,Termitomyces clypeatus [1]; at lower concentrations,the effect is not observed
same,biosynthesis of extracellular as well as intracellular protein,Trichoderma reesei; 2-deoxy-D-glucose 0-150 μg/ml,inhibited
same,Cellobiohydrolase activity,Termitomyces clypeatus [2]; [4],3.600 units/ml
same,Cellobiohydrolase activity,Termitomyces clypeatus [2]; [5],4.873 units/ml
same,Cellobiohydrolase activity,Termitomyces clypeatus [2]; [6],3.546 units/ml
same,cellobiohydrolase,Termitomyces clypeatus [2]; [7],3.5 units per ml
same,cellobiohydrolase,Termitomyces clypeatus [2]; [8],3.5 units per ml
same,cellobiohydrolase,Termitomyces clypeatus [2]; [9],3.5 units per ml
same,Maximum cellobiase activity,Dichomitus squalenes,0.05^C U/ml
same,growth of the fungus,T. clypeatus,inhibit growth
same,Endo-glucanase activity,Termitomyces clypeatus [3]; [4],4.637 units/ml
same,Endo-glucanase activity,Termitomyces clypeatus [3]; [5],1.086 units/ml
same,Endo-glucanase activity,Termitomyces clypeatus [3]; [6],4.112 units/ml
same,endo-glucanase,Termitomyces clypeatus [3]; [7],4.5 units per ml
same,endo-glucanase,Termitomyces clypeatus [3]; [8],6 units per ml
same,endo-glucanase,Termitomyces clypeatus [3]; [9],4 units per ml
Tunicamycin,Cellobiase activity,Termitomyces clypeatus [1]; Control + Tunicamycin 10 μg/ml,1.2075 units/ml
same,effect on secretion of proteins,Trichoderma reesei; Tunicamycin 0-50 μg/ml,no effect

# Source: patent publication US6946277B2, “Method for enhancing cellobiase activity of termitomyces clypeatus using a glycosylation inhibitor” (Council of Scientific and Industrial Research, priority 2001, dated 2005)
